Results as given in patent US10000471B2, “Pyrazole P38 map kinase inhibitors” (Respivert Limited, priority 2010, dated 2018).

Key:
[1] = system: ICAM-1 induction in BEAS2B cells; experiment: Poly I:C-induced ICAM-1 induction in BEAS2B cells; type: cell-based, human; settings: Homo sapiens, BEAS-2B, read-out: PolyIC/ICAM1 IC50 BEAS2B
Description: Poly I:C-Induced ICAM-1 Induction in BEAS2B Cells
Poly I:C (1 μg/mL) (Invivogene Ltd., San Diego, Calif.) was transfected into BEAS2B cells (human bronchial epithelial cells, ATCC) with Oligofectamine (Invitrogen, Carlsbad, Calif.). Cells were pre-incubated with final concentrations of test compounds for 2 hr and the level of ICAM1 expression on the cell surface was determined by cell-based ELISA. At a time point 18 hr after poly I:C transfection, cells were fixed with 4% formaldehyde in PBS and then endogenous peroxidase was quenched by the addition of 0.1% sodium azide and 1% hydrogen peroxide. Cells were washed with wash-buffer (0.1% Tween in PBS: PBS-Tween). and after blocking the wells with 5% milk in PBS-Tween for 1 hr, the cells were incubated with anti-human ICAM-1 antibody (Cell Signaling Technology, Danvers, Mass.) in 1% BSA PBS overnight at 4° C. The cells were washed with PBS-Tween and incubated with the secondary antibody (HRP-conjugated anti-rabbit IgG, Dako Ltd., Glostrup, Denmark). The ICAM-1 signal was detected by adding substrate and reading the absorbance at 450 nm against a reference wavelength of 655 nm using a spectrophotometer. The cells were then washed with PBS-Tween and total cell numbers in each well were determined by reading absorbance at 595 nm after Crystal Violet staining and elution by 1% SDS solution. The measured OD 450-655 readings were corrected for cell number by dividing with the OD595 reading in each well. The inhibition of ICAM-1 expression was calculated at each concentration of test compound by comparison with vehicle control. The 50% inhibitory concentration (IC50) was determined from the resultant concentration-response curve.

p38 MAPKγ (MAPK12) = biological target: T1, p38 MAPKγ (MAPK12) (Homo sapiens, UniProt P53778); experiment: Enzyme inhibition assay (FRET, Z-LYTE), p38 MAPKγ; type: biochemical; settings: read-out: Enzyme Inhibition IC50 p38γ
T1 construct: purchased Invitrogen
T1 sequence (P53778 1-367): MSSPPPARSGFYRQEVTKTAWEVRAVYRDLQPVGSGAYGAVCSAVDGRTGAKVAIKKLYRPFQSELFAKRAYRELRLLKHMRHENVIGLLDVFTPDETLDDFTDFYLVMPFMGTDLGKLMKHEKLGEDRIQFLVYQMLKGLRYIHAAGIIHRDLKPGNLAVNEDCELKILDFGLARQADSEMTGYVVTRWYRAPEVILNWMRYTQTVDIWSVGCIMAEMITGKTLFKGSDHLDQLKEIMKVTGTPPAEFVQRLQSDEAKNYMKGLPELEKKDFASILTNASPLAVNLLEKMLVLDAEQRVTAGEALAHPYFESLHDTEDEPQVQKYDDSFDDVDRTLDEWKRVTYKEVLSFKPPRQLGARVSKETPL
Description: (§1) The enzyme inhibitory activities of compounds disclosed herein were determined by fluorescence resonance energy transfer (FRET) using synthetic peptides labelled with both donor and acceptor fluorophores (Z-LYTE, Invitrogen Ltd., Paisley, UK). Recombinant, phosphorylated p38 MAPKγ (MAPK12:Invitrogen) was diluted in HEPES buffer, mixed with the test compound at the desired final concentrations and incubated for 2 hr at RT. The FRET peptide (2 μM) and ATP (100 μM) were added to the enzyme/compound mixture and incubated for 1 hr. Development reagent (protease) was added for 1 hr prior to detection in a fluorescence microplate reader (Varioskan® Flash, ThermoFisher Scientific). The site-specific protease cleaves non-phosphorylated peptide only and eliminates the FRET signal. Phosphorylation levels of each reaction were calculated using the ratio of coumarin emission (donor) over fluorescein emission (acceptor) for which high ratios indicate high phosphorylation and low ratios indicate low phosphorylation levels. The percentage inhibition of each reaction was calculated relative to non-inhibited control and the 50% inhibitory concentration (IC50 value) then calculated from the concentration-response curve.

[2] = system: TNFα release in THP-1 cells; experiment: LPS-induced TNFα release in THP-1 cells; type: cell-based, human; settings: Homo sapiens
Description: LPS-Induced TNFα Release in THP-1 Cells
THP-1 cells, a human monocytic cell line, were stimulated with 3 μg/mL of LPS (from E. Coli; 0111:B4, Sigma) for 4 hr and the supernatant collected for determination of the TNFα concentration by sandwich ELISA (Duo-set, R&D systems). The inhibition of TNFα production was calculated at each concentration by comparison with vehicle control. The 50% inhibitory concentration (IC50) was determined from the resultant concentration-response curve.

[3] = biological target: T2, p38 MAPKα isoform (MAPK14) (Homo sapiens, UniProt Q16539); experiment: Enzyme inhibition assay (FRET, Z-LYTE), p38 MAPKα via MAPKAP-K2 activation; type: biochemical; settings: read-out: Enzyme Inhibition IC50 p38α
T2 construct: purchased Invitrogen
T2 sequence (Q16539 whole entry, canonical isoform): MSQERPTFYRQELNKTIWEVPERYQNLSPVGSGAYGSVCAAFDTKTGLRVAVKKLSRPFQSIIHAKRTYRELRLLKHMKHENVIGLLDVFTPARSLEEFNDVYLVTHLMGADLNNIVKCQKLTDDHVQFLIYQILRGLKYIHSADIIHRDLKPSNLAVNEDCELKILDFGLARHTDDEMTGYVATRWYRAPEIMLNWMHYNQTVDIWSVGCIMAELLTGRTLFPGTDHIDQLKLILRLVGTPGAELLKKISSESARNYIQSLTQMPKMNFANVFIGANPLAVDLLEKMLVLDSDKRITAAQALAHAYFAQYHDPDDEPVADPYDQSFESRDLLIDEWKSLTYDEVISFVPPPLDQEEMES
Description: as §1
For the p38 MAPKα isoform (MAPK14: Invitrogen), enzyme activity was evaluated indirectly by determining the level of activation/phosphorylation of the down-stream molecule, MAPKAP-K2. The p38 MAPKα protein was mixed with the test compound for 2 hr at RT. […] Development reagent was then added and the mixture incubated for 1 hr before detection by fluorescence completed the assay protocol.

[4] = system: TNFα release in d-U937 cells; experiment: LPS-induced TNFα release in d-U937 cells; type: cell-based, human; settings: Homo sapiens, dU937, relative to 10 μg/mL BIRB796, read-out: LPS/TNFα REC50 d-U937
Description: (§2) LPS-Induced TNFα/IL-8 Release in d-U937 Cells
(§3) U937 cells, a human monocytic cell line, were differentiated to macrophage-type cells by incubation with phorbol myristate acetate (PMA; 100 ng/ml) for 48 to 72 hr. Cells were pre-incubated with final concentrations of test compound for 2 hr and were then stimulated with 0.1 μg/mL of LPS (from E. Coli: O111:B4, Sigma) for 4 hr. The supernatant was collected for determination of TNFα and IL-8 concentrations by sandwich ELISA (Duo-set, R&D systems). The inhibition of TNFα production was calculated as a percentage of that achieved by 10 μg/mL of BIRB796 at each concentration of test compound by comparison against vehicle control. The relative 50% effective concentration (REC50) was determined from the resultant concentration-response curve. The inhibition of IL-8 production was calculated at each concentration of test compound by comparison with vehicle control. The 50% inhibitory concentration (IC50) was determined from the resultant concentration-response curve.

[5] = system: Differentiated U937 cells; experiment: Cell viability MTT assay; type: cell-based, human; settings: negative = apparent increase in viability; for MTT Assay (Viability) 4 h d-U937, percentage loss of cell viability: 4 hr in 5% FCS; for MTT Assay (Viability) 24 h d-U937, percentage loss of cell viability: 24 h in 10% FCS
Description: Differentiated U937 cells were pre-incubated with each test compound under two protocols: the first for 4 hr in 5% FCS and the second in 10% FCS for 24 h. The supernatant was replaced with 200 μL of new media and 10 μL of MTT stock solution (5 mg/mL) was added to each well. After incubation for 1 hr the media were removed, 200 μL of DMSO was added to each well and the plates were shaken lightly for 1 hr prior to reading the absorbance at 550 nm. The percentage loss of cell viability was calculated for each well relative to vehicle (0.5% DMSO) treatment. Consequently an apparent increase in cell viability for drug treatment relative to vehicle is tabulated as a negative percentage.

[6] = system: IL-8 release in d-U937 cells; experiment: LPS-induced IL-8 release in d-U937 cells; type: cell-based, human; settings: Homo sapiens, dU937
Description: as §2, §3

Row | SMILES | IC50 [1] [nM] | IC50 (p38 MAPKγ (MAPK12)) [nM] | IC50 [2] [nM] | IC50 [3] [nM] | EC50 [4] [nM] | MTT Assay (Viability) 4 h d-U937, percentage loss of cell viability [5] [%] | MTT Assay (Viability) 24 h d-U937, percentage loss of cell viability [5] [%] | IC50 [6] [nM]
1 | CN(C)CC(=O)Nc1cc(Oc2ccc(NC(=O)Nc3cc(C(C)(C)C)nn3-c3ccc(CO)cc3)c(Cl)c2Cl)ccn1 [Example 46, N-(4-(4-(3-(3-tert-butyl-1-(4-hydroxymethylphenyl)-1H-pyrazol-5-yl)ureido)-2,3-dichlorophenoxy)pyridin-2-yl)-2-(dimethylamino) acetamide] | 2.4 | 38.7 | 0.3 | 20.9 | 0.9 | −12.6 | 82.7 | 1.1
2 | CNCC(=O)Nc1cc(Oc2ccc(NC(=O)Nc3cc(C(C)(C)C)nn3-c3ccc(CO)cc3)c(Cl)c2Cl)ccn1 [Example 8, N-(4-(4-(3-(3-tert-Butyl-1-(4-(hydroxymethyl)phenyl)-1H-pyrazol-5-yl)ureido)-2,3-dichlorophenoxy)pyridin-2-yl)-2-(methylamino)acetamide] | 2.4 | 17.2 | 0.5 | 7.6 | 0.9 | −7.0 | 85.6 | 4.7
3 | CN(C)[C@@H]1CCN(C(=O)Nc2cc(Oc3ccc(NC(=O)Nc4cc(C(C)(C)C)nn4-c4ccc(O)cc4)c(Cl)c3Cl)ccn2)C1 [Example 11, (R)—N-(4-(4-(3-(3-tert-Butyl-1-(4-hydroxyphenyl)-1H-pyrazol-5-yl)ureido)-2,3-dichlorophenoxy)pyridin-2-yl)-3-(dimethylamino)pyrrolidine-1-carboxamide] | 1.8 | 38.7 | 0.7 | 15.9 | 0.8 | −1.3 | 42.0 | 4.5
4 | COc1ccc(-n2nc(C(C)(C)C)cc2NC(=O)Nc2ccc(Oc3ccnc(NC(=O)N(C)C)c3)c(Cl)c2Cl)cc1 [Example 64, 3-(4-(4-(3-(3-tert-butyl-1-(4-methoxyphenyl)-1H-pyrazol-5-yl)ureido)-2,3-dichlorophenoxy)pyridin-2-yl)-1,1-dimethylurea] | 1.5 | 58 | 0.4 | 13.3 | 0.3 | −37.2 | 37.2 | 15.1
5 | CN(C)CCNC(=O)Nc1cc(Oc2ccc(NC(=O)Nc3cc(C(C)(C)C)nn3-c3ccc(CO)cc3)c(Cl)c2Cl)ccn1 [Example 70, 1-(3-tert-butyl-1-(4-hydroxymethylphenyl)-1H-pyrazol-5-yl)-3-(2,3-dichloro-4-(2-(3-(2-(dimethylamino)ethyl)ureido)pyridin-4-yloxy)phenyl)urea] | 10.1 | 30.1 | 2.4 | 3.5 | 1.5 | 6.1 | 94.1 | 5.7
6 | COCC(=O)Nc1cc(Oc2ccc(NC(=O)Nc3cc(C(C)(C)C)nn3-c3ccc(C)cc3)cc2C(F)(F)F)ccn1 [Example 30, N-(4-(4-(3-(3-tert-butyl-1-p-tolyl-1H-pyrazol-5-yl)ureido)-2-trifluoromethylphenoxy)pyridin-2-yl)-2-methoxyacetamide] | 6.9 | 152 | 1.3 | 164 | 2.5 | 3.3 | 61.6 | 6.5
7 | COCC(=O)Nc1cc(Oc2ccc(NC(=O)Nc3cc(C(C)(C)C)nn3-c3ccc(C)cc3)cc2Cl)ccn1 [Example 29, N-(4-(4-(3-(3-tert-butyl-1-p-tolyl-1H-pyrazol-5-yl)ureido)-2-chlorophenoxy)pyridin-2-yl)-2-methoxyacetamide] | 77 | 46.1 | 2.2 | 46.1 | 0.8 | −0.7 | 30.8 | 17.9
